The results in this text go back to patent US20050107289A1, “Anti-microbial peptides and compositions” (priority 2001, published 2005).

In one series the test system is murine red blood cells. Kind of series: Red blood cell hemolysis. The series is classed as cell-based, mouse. Put shortly:
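Hemolysis read as A560 of supernatant, scaled between saline (0%) and 1% Triton X-100 (100%) controls; peptides were serially diluted onto 5% murine red cells in saline plus 10% FBS and incubated 30 min at 37° C.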

The test system of a further series is E. faecium SP180. As to the kind of experiment: Time-killing curve, E. faecium SP180. The series is classed as cell-based, Enterococcus faecium. The note with it: for time to kill effectively all bacteria / killing of bacteria: about 2 μg/ml, BHI broth. Here is the method:
The speed at which several of the cyclic peptides of the invention kill E. coli JM 109 (DE3), Enterococcus faecium SP 180 and S. aureus (MRSA) (ATCC No. 33591 and 33592) was further tested at room temperature and/or at 37° C. A lower temperature tends to enrich the bacterial cultures for mature bacteria because the bacteria are not growing quickly. […] The presence or absence of immature bacteria in the culture may influence the rate at which the bacteria are killed, because immature bacteria tend to be more susceptible to many forms of antibiotics.
FIGS. 11 and 12 illustrate the time course for killing E. faecium SP 180 with varying concentrations of KSKWLWLW (SEQ ID NO:12), at room temperature and at 37° C. Assays were performed in Brain Heart Infusion broth. As illustrated, somewhat shorter times and/or somewhat lower concentrations of this cyclic peptide are required to kill E. faecium SP180 at 37° C. than at room temperature. E. faecium SP180 is vancomycin resistant (vanA) and multiply resistant to several FDA approved antibiotics. […] This may be due to growth of a few survivors after the residual cyclic peptide within the culture has been exhausted because the amount of peptide employed in that assay was below the MIC value.

The test system of series [1] is vancomycin resistant E. faecium (VREF)(ATCC 51575). As to the kind of experiment: Mouse peritonitis model, VREF protection. Format: in vivo, mice. Also on record: PD50 VREF: unit not given here. The note with it: for PD50 VREF: Table 12, male Balb-C mice, IP infection, IP peptide; for In Vivo VREF PD50: Table 13; for protection of mice from VREF infection: single bolus IP dose of appropriate amount, 45-60 min after infection. As for the experimental part: Vancomycin resistant Enterococcus faecium (VREF) bacteria (ATCC 51575) were grown at 37° C. in 60 mL of Brain Heart Infusion medium (BHI, Difco Laboratories) with agitation for 16 hours to a stationary phase. Cells were collected by centrifugation, washed twice with saline solution and resuspended in 6 mL of saline to a theoretical O.D.650 of 9-10 (determined by taking OD.650 of 10-20 fold diluted samples and correlating it to the original concentration). This suspension was diluted 15 times in a sterilized 5% mucin (Difco) in saline to a concentration of 5-7×10^8 cfu/ml (actual inoculum size was verified by colony counts on agar plates).
Peptides of the invention were tested in mice to ascertain whether they would protect the mice against bacterial infection using procedures similar to those described in N. Frimodt-Moller et al., The Mouse Peritonitis/Sepsis Model, in Zak et al. (eds.) HANDBOOK OF ANIMAL MODELS OF INFECTION 127-37 (Academic Press 1999).
Male Balb-C mice (6 weeks old, approximately 20 g) were used in the study. Staphylococcus aureus MRSA bacteria (ATCC 33591) were grown at 37° C. with agitation for 12 hours to a stationary phase. Cells were collected by centrifugation, washed twice with saline and resuspended to an O.D.650 of 1.4. This suspension was diluted ten times with saline and resuspended to a concentration of 3-5×10^7 cfu/ml. For each peptide five groups of eight mice per group were infected I.P. with 0.5 ml of the above Staphylococcus aureus MRSA preparation (lethal dose). Forty-five minutes to an hour after infection, each group was treated with a different dose of peptide and a control group received vehicle only. Mice were monitored for fourteen days; death was defined as the end point. Median protecting doses (PD50) were calculated following the Reed and Muench method. […] For IV and SQ models peptide was administered immediately after IP infection.

The test system of series [2] is Bacillus cereus ATCC 11778. The series is classed as cell-based. Put shortly:
(§1)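 Broth microdilution (macrodilution in some cases) per NCCLS M7-A4; peptides 2-fold serially diluted in 5% DMSO/9% sucrose, ~400-2 μg/ml before dilution into broth; inoculum ~2.5×10^5 cfu/ml from overnight culture diluted 4000×.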

Series [3] deals with Streptococcus pneumoniae (ATCC 6301). The series is classed as cell-based. In a few lines:
as §1

Non-standard residues stand in square brackets, D forms with d. Residues, ends and D or L forms follow the SMILES beside them.

For `CC(C)C[C@H]1NC(=O)[C@H](Cc2c[nH]c3ccccc23)NC(=O)[C@@H](CCCNC(=N)N)NC(=O)[C@H](CCC(N)=O)NC(=O)[C@@H](CCCCN)NC(=O)[C@H](Cc2c[nH]c3ccccc23)NC(=O)[C@@H](CC(C)C)NC(=O)[C@H](Cc2c[nH]c3ccccc23)NC1=O` [SEQ ID NO:8, cyclo-(D-Lys-Gln-D-Arg-Trp-D-Leu-Trp-D-Leu-Trp)] (cyclo([dK]Q[dR]W[dL]W[dL]W)), in the series with murine red blood cells, the HD50 turned out to be 10 µg/mL, the “In Vitro RBC MIC” value came out at 40 µg/mL and the “reduction in hemolytic activity” value is “five-fold”. Also, the “Hemolysis HD50” value in the series with murine red blood cells (red cells of murine) amounted to 45 µg/mL.

Regarding `CC(C)C[C@H]1NC(=O)[C@H](Cc2c[nH]c3ccccc23)NC(=O)[C@@H](CCCCN)NC(=O)[C@H](CO)NC(=O)[C@@H](CCCCN)NC(=O)[C@H](Cc2c[nH]c3ccccc23)NC(=O)[C@@H](CC(C)C)NC(=O)[C@H](Cc2c[nH]c3ccccc23)NC1=O` [SEQ ID NO:12, D-Lys-Ser-D-Lys-Trp-D-Leu-Trp-D-Leu-Trp] (cyclo([dK]S[dK]W[dL]W[dL]W)), in the series with E. faecium SP180 (1 μg/ml, 37° C.), the “rebound in bacterial viability” value is listed as “rebound in bacterial viability” and the “time after which effectively no cfu can be detected” value amounted to 2 h. Moreover, in the series with E. faecium SP180 (1 μg/ml, room temperature), the surviving bacteria entry was “viable bacteria can be detected throughout the entire time-course”. The “time to kill effectively all bacteria” value in the series on E. faecium SP180 (37° C.) is on record as “faster than an aliquot can be removed from the test culture”. In addition, the killing of bacteria entry in the series on E. faecium SP180 (room temperature) is reported as “discernible numbers of surviving bacteria can be detected immediately”. In addition, in series [1], the “PD50 E. faecium VREF infection” value was found to be 5 mg/kg, the “PD50 VREF” value is reported as 5, the “In Vivo VREF PD50” value worked out at 5 mg/kg and the “protection of mice from VREF infection” value is given as “completely protect”. Besides, the B. cerius MIC in series [2] was less than 3 µg/mL. In series [3], this molecule displayed a S. pneum. MIC of 10 µg/mL. In the series with murine red blood cells, the “In Vitro RBC MIC” value is 100 µg/mL and the “RBC Hemolysis (HD50)” value came out at 100.

For the molecule `CC(C)C[C@H]1NC(=O)[C@H](Cc2c[nH]c3ccccc23)NC(=O)[C@@H](CCCCN)NC(=O)[C@H](CCCNC(=N)N)NC(=O)[C@@H](CCCNC(=N)N)NC(=O)[C@H](Cc2c[nH]c3ccccc23)NC(=O)[C@@H](CC(C)C)NC(=O)[C@H](Cc2c[nH]c3ccccc23)NC1=O` [SEQ ID NO:18, cyclo-(D-Arg-Arg-D-Lys-Trp-D-Leu-Trp-D-Leu-Trp)] (cyclo([dR]R[dK]W[dL]W[dL]W)), in the series with E. faecium SP180 (37° C.), the “time to kill effectively all bacteria” value is given as “within one hour”. Moreover, in the series with E. faecium SP180 (room temperature), the killing of bacteria entry is listed as “within one hour”. In addition, in series [1], the “PD50 E. faecium VREF infection” value was 7 mg/kg, the “PD50 VREF” value is recorded as 7, the “In Vivo VREF PD50” value is 7 mg/kg and the “protection of mice from VREF infection” value was “completely protect”. The molecule also came in with a B. cerius MIC in series [2] of 5 µg/mL. Further, the S. pneum. MIC in series [3] was found to be 5 µg/mL. In addition, in the series with murine red blood cells, the “In Vitro RBC MIC” value is 50 µg/mL and the “RBC Hemolysis (HD50)” value came out at 50.
